Measured values taken from US20250340848A1, “METHODS FOR CHEMICAL REPROGRAMMING AND PLURIPOTENT STEM CELLS” (Peking University, priority 2022, published 2025).

Key:
Assay type in all cases: cell-based, human
[1] = system: hADSCs; experiment: Example 7 chemical reprogramming of hADSCs, OCT4+ hCiPSC colonies; conditions: for improving reprogramming efficiency: added in stage 1
Procedure: The stage 1 induction medium contained Knockout DMEM (Gibco) supplemented with 2% B27 supplement (Gibco), 1% Knockout Serum Replacement (KSR; Gibco), 1% GlutaMAX (Gibco), 1% nonessential amino acids (NEAA; Gibco), 1% penicillin-streptomycin, 50 μg ml-1 Vc2p, 5 mM LiCl, 1 mM nicotinamide, 40 ng ml^−1 BMP4 and the small molecules CHIR-99021 (5 μM), 616452 (10 μM), TTNPB (2 μM), SAG (0.5 μM), EPZ-5676 (2 μM), DZNep (0.05 μM), ruxolitinib (1 μM), VTP50469 (0.5 μM), AKT kinase inhibitor (1 μM), JNK-IN-8 (0.2 μM), SETD2-IN-1 (0.2 μM), AM095 free acid (0.5 μM), WM-8014 (1 μM) and A-485 (0.5 μM).
Stage 2 induction medium contained Knockout DMEM supplemented with 2% B27 supplement, 1% GlutaMAX, 1% NEAA, 1% penicillin-streptomycin, 50 μg ml^−1 Vc2p, 200 ng ml^−1 bFGF and the small molecules CHIR-99021 (5 μM), 616452 (10 μM), TTNPB (2 μM), SAG (0.5 μM), JNK-IN-8 (0.5 μM), EPZ-5676 (2 μM), DZNep (0.2 μM), ruxolitinib (1 μM), BIRB 796 (2 μM), SGC-CBP30 (2 μM), VTP50469 (0.5 μM), 5-Iodotubercidin (0.5 μM), AKT kinase inhibitor (0.2 μM), CX-4945 (1 μM), RA (5 μM) and GSK-3685032 (0.02 μM).
Stage 3 induction medium contained Knockout DMEM supplemented with 2% B27 supplement, 1% GlutaMAX, 1% NEAA, 1% penicillin-streptomycin, 5% KSR, 50 μg ml^−1 Vc2p, 20 ng ml^−1 recombinant human heregulinβ-1 (HRG) and the small molecules CHIR-99021 (1 μM), Y-27632 (10 μM), PD0325901 (1 μM) and SB-590885 (0.5 μM). Knockout DMEM containing supplements and the small molecules mentioned above served as the basal medium for stage 3. For the first 2-3 days of stage 3 induction, valproic acid sodium salt (VPA; 200 μM), tranylcypromine (10 μM), DZNep (0.2 μM), EPZ-5676 (2 μM) and PY-60 (10 μM) were added to the basal medium. For the next 2-3 days, VPA (200 μM) and PY-60 (2 μM) were added to the basal medium. Information on the small molecules, cytokines and other reagents is available in Supplementary Table 4.
Hypoxia with 5% O2 was used for stage 1 induction. After stage 1 induction, the culture was changed to 21% O2.
(1) hADSCs and hASFs were seeded in high-glucose DMEM supplemented with 15% FBS at a density of 1.2-1.4×10^4 cells per well in 12-well plates or 0.6-0.7×10^4 cells per well in 24-well plates. The medium was changed to stage 1 induction medium the next day.
(2) For stage 1 induction, single-layer epithelium-like cells emerged on day 4. When the epithelium-like cells reached ˜100% confluence (usually after 6-8 days of stage 1 induction for hADSCs and 8-10 days for hASFs), the medium was changed to stage 2 induction medium. For the induction of hADSCs in 24-well plates, 1 ml of stage 1 medium was added to each well (2 ml per well for 12-well plates), and there was no need to change the medium during stage 1. For the induction of hASFs, stage 1 medium was replaced with fresh medium on day 6. […]

[2] = system: hADSCs; experiment: Stage 1 conversion of hADSCs to epithelial-like cells, morphology (FIG. 3); conditions: added in stage 1, small-molecule library screen
Procedure: (§1) In one experiment, when converting hCiPSCs from somatic cell (e.g., hADSCs), hypoxia with 5% O2 was used in stage 1 conversion. After stage 1 conversion, cells were incubated with 21% O2. The induction medium was changed every 3-4 days. hADSCs were seeded at a density of 1×10^4 cells per well of a 12-well plate in 15% FBS-DMEM medium and would be changed into stage 1 conversion medium the next day. For stage 1 conversion, single layer epithelial-like cells induced from hADSCs would emerge at day 4-6 and approach 100% confluence at day 8-12. Then the medium was changed into stage 2 conversion medium. For stage 2 conversion, multi-layered cell colonies appeared after 8-12 days of treatment of the cells with the conversion medium, and these cell colonies would continually grow increasingly large. The medium was changed into stage 3 conversion medium after 16 days of treatment with the stage 2 conversion medium. […]
In stage 1, the conversion medium was changed every 3-4 days. hADSCs were seeded at a density of 1×10^4 cells per well of a 12-well plate in 15% FBS-DMEM medium and would be changed into stage I induction medium the next day. […] Conversion into epithelial-like cells can be measured by upregulation of and epithelial cell-related genes. […]

[3] = system: hADSCs; experiment: Three-stage conversion of hADSCs into hCiPSCs (methods of EXAMPLE 1), numbers of hCiPSC colonies
Text: FIG. 1 illustrates a schematic of an exemplary method for converting human somatic cells into pluripotent stem cells. The method has 3 stages. During any of the 3 stages, any cell can proliferate and give rise to progeny cells. In stage 1, a first population of cells comprising somatic cells are contacted with a first composition for about 4-12 days. The first population of cells can comprise somatic cells (e.g., fibroblasts or primary human adult adipose derived mesenchymal stromal cells (hADSCs)). During and/or subsequent to contacting the first composition, at least a subset of the cells of the first population of cells or the progenies thereof are converted into a second population of cells. The second population of cells can comprise epithelial-like cells. In stage 2, the second population of cells or the progenies thereof are then contacted with a second composition for about 4-16 days. During and/or subsequent to contacting the second composition, at least a subset of the cells of the second population of cells or the progenies thereof are converted into a third population of cells. The third population of cells can comprise intermediate plastic state cells. In stage 3, the third population of cells or the progenies thereof are contacted with a third composition for about 6-12 days. During and/or subsequent to contacting the third composition, at least a subset of the cells of the third population of cells or the progenies thereof are converted into a fourth population of cells.
FIG. 2 illustrates a schematic of an exemplary method for converting human fibroblasts into pluripotent stem cells. The method can comprise 3 stages. During any of the 3 stages, any cell can proliferate and give rise to progeny cells. In stage 1, a first population of cells comprising fibroblasts is contacted with a first composition for about 8-10 days. During and/or subsequent to contacting the first composition, at least a subset of the cells of the first population of cells or the progenies thereof are converted into a second population of cells. The second population of cells can comprise epithelial-like cells. The epithelial-like cells express an increased amount of LIN28A, relative to the first population of cells or their progenies. In stage 2, the second population of cells or the progenies thereof are then contacted with a second composition for about 12-16 days. During and/or subsequent to contacting the second composition, at least a subset of the cells of the second population of cells or the progenies thereof are converted into a third population of cells. The third population of cells can comprise intermediate plastic state cells. The intermediate plastic state cells express both SALL4 and LIN28A. In stage 3, the third population of cells or the progenies thereof are contacted with a third composition for about 8-10 days. During and/or subsequent to contacting the third composition, at least a subset of the cells of the third population of cells or the progenies thereof are converted into a fourth population of cells. […] The second conversion medium can then be removed from the cells. […] The third stage 3 medium may allow the pluripotent stem cells or the progenies thereof to proliferate.
as §1, with “medium.” for “medium. For stage 2 conversion, multi-layered cell colonies appeared after 8-12 days of treatment of the cells with the conversion medium, and these cell colonies would continually grow increasingly large. The medium was changed into stage 3 conversion medium after 16 days of treatment with the stage 2 conversion medium.”

For `CNC(=O)Nc1ccc2c(c1)CC[C@@]21OC(=O)N(CC(=O)N(Cc2ccc(F)cc2)[C@@H](C)C(F)(F)F)C1=O` [A485], the “screening of chemical libraries targeting histone modifications during chemical reprogramming stage 1” value ([1]; 0.5 μM screening batch, FIG. 39) was “top candidate” and the improving reprogramming efficiency [1] was “most effective in improving reprogramming efficiency”.
In the case of `CCn1c(-c2nonc2N)nc2c(C#CCO)ncc(OCCCN)c21` [AKT Kinase Inhibitor, 3-[2-(4-amino-1,2,5-oxadiazol-3-yl)-7-(3-aminopropoxy)-1-ethylimidazo[4,5-c]pyridin-4-yl]prop-2-yn-1-ol], the “emergence of epithelial-like colonies” value [2] is reported as “further promoted the emergence epithelial-like colonies”, the reprogramming efficiency ([3]; AKTi and CX4945 included in the stage 2 conversion medium (Base), FIG. 18) is reported as “significantly improved the reprogramming efficiency” and the “numbers of converted hCiPSCs” value ([3]; factor removed from the stage 1 conversion medium, FIG. 4) is reported as “minimal numbers of converted hCiPSCs”.
With `CC(C)N(C(=O)c1cc(F)ccc1Oc1cncnc1N1CC2(CCN(CC3CCC(NS(C)(=O)=O)CC3)CC2)C1)C(C)C` (centres unmarked) [VTP50469] the “emergence of epithelial-like colonies” value [2] was “further promoted the emergence epithelial-like colonies”, the “increase of the numbers of converted hCiPSCs” value ([3]; added to the stage 2 conversion medium, relative to medium without it, FIGS. 7A-7B) was “about 7 fold” and the “numbers of converted hCiPSCs” value ([3]; factor removed from the stage 2 conversion medium, FIG. 17) was “reduced the numbers of converted hCiPSCs”. The “numbers of converted hCiPSCs” value ([3]; various combinations supplemented to stage 1 conversion medium comprising CHIR99021, 616452, TTNPB and AKT Kinase Inhibitor, FIG. 5) was “significantly increase the numbers of converted hCiPSCs”.
`Cc1cc(-c2ccccc2)cc(C(=O)NNS(=O)(=O)c2ccccc2)c1F` [WM8014] was tested, and the “screening of chemical libraries targeting histone modifications during chemical reprogramming stage 1” value ([1]; 1 μM screening batch, FIG. 40) was “top candidate” and the improving reprogramming efficiency [1] was “most effective in improving reprogramming efficiency”.
